Measured values reported in ChEMBL document CHEMBL5143704, “Discovery of 2,4-diarylaminopyrimidine derivatives bearing dithiocarbamate moiety as novel ALK inhibitors” (Bioorg Med Chem, 2022).

Assays:
A549 = experiment: cells; details: Homo sapiens, A549, 96 h
Description: Antiproliferative activity against ALK-negative human A549 cells assessed as inhibition of cell growth incubated for 96 hrs by MTT assay

KARPAS-299 = experiment: cells; details: Homo sapiens, KARPAS-299, 96 h
Description: Antiproliferative activity against NPM-ALK positive human KARPAS-299 cells assessed as inhibition of cell growth incubated for 96 hrs by CCK-8 assay

NCI-H2228 = experiment: cells; details: Homo sapiens, NCI-H2228, 96 h
Description: Antiproliferative activity against EML4-ALK positive human NCI-H2228 cells assessed as inhibition of cell growth incubated for 96 hrs by MTT assay

HCT-116 = experiment: cells; details: Homo sapiens, HCT-116, 96 h
Description: Antiproliferative activity against ALK-negative human HCT-116 cells assessed as inhibition of cell growth incubated for 96 hrs by MTT assay

[1] = target: ALK tyrosine kinase receptor (Homo sapiens, UniProt Q9UM73); experiment: Inhibition of wild type N-terminal GST tagged ALK cytoplasmic domain (1058 to 1620 end residues) (unknown origin) expressed in Sf21 cells incubated for 1 hr in presence of ATP
Sequence of ALK tyrosine kinase receptor (Q9UM73 whole entry, the tested form may be a part): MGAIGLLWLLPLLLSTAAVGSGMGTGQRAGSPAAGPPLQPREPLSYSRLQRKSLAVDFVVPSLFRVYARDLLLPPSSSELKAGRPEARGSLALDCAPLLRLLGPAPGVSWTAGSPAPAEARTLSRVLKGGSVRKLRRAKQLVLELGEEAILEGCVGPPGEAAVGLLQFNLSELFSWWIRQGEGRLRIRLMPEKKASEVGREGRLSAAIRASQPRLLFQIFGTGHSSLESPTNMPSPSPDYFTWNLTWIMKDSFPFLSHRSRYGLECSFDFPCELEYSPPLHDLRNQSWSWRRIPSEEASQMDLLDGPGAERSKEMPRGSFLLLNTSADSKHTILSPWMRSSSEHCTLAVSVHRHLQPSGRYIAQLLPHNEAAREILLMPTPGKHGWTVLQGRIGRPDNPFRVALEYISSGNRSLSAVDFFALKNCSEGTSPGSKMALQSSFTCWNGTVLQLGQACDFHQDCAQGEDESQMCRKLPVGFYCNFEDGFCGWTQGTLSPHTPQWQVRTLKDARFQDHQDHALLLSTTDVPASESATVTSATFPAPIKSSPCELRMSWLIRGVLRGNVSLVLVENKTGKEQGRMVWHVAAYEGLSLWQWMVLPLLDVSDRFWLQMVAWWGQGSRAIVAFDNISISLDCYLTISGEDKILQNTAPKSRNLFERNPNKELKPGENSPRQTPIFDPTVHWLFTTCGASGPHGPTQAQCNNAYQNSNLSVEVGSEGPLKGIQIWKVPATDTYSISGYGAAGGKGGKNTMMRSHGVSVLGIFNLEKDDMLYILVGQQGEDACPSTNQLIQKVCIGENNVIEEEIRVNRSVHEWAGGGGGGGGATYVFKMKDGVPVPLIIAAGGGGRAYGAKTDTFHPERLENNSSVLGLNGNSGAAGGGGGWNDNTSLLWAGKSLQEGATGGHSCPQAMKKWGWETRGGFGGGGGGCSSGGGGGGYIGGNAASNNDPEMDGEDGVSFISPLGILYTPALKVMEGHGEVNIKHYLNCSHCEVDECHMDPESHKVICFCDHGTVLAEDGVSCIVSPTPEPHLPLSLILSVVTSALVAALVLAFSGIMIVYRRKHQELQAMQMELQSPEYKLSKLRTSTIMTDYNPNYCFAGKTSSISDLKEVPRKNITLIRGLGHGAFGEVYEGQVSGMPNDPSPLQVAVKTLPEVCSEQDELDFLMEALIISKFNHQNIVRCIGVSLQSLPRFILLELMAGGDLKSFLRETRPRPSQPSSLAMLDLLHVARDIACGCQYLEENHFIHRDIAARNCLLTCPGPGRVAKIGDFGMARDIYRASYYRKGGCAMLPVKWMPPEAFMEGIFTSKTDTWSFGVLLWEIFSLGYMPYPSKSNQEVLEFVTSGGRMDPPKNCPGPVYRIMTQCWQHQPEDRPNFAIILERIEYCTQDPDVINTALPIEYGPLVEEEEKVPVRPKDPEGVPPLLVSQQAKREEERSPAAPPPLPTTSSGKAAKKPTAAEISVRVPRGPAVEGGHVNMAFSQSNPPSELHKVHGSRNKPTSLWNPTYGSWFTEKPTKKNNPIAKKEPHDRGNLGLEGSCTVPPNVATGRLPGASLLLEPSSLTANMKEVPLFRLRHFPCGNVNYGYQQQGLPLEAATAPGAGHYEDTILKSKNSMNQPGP

Row | Compound | IC50 (A549) | IC50 (KARPAS-299) | IC50 (NCI-H2228) | IC50 (HCT-116) | IC50 [1]
1 | Cc1cc(Nc2ncc(Cl)c(Nc3ccccc3S(=O)(=O)C(C)C)n2)c(OC(C)C)cc1C1CCN(C(=S)SCC(=O)N2CCCCC2)CC1 | > 10000 nM | 150 nM | 1320 nM | 3330 nM | 
2 | Cc1cc(Nc2ncc(Cl)c(Nc3ccccc3S(=O)(=O)C(C)C)n2)c(OC(C)C)cc1C1CCN(C(=S)SCCN2CCOCC2)CC1 | > 10000 nM | 320 nM | 170 nM | 3780 nM | 
3 | Cc1cc(Nc2ncc(Cl)c(Nc3ccccc3S(=O)(=O)C(C)C)n2)c(OC(C)C)cc1C1CCN(C(=O)SCC(=S)N(C)CCN(C)C)CC1 | > 10000 nM | 480 nM | 370 nM | 6550 nM | 
4 | CCN(CC)C(=S)CSC(=O)N1CCC(c2cc(OC(C)C)c(Nc3ncc(Cl)c(Nc4ccccc4S(=O)(=O)C(C)C)n3)cc2C)CC1 | > 10000 nM | 440 nM | 1230 nM | 2510 nM | 
5 | Cc1cc(Nc2ncc(Cl)c(Nc3ccccc3S(=O)(=O)C(C)C)n2)c(OC(C)C)cc1C1CCN(C(=S)SCCN2CCCCC2)CC1 | > 10000 nM | 90 nM | 280 nM | 2450 nM | > 100 nM
6 | Cc1cc(Nc2ncc(Cl)c(Nc3ccccc3S(=O)(=O)C(C)C)n2)c(OC(C)C)cc1C1CCN(C(=S)SCC(=O)NC2CCCC2)CC1 | > 10000 nM | 130 nM | 410 nM | 3520 nM | 
7 | Cc1cc(Nc2ncc(Cl)c(Nc3ccccc3S(=O)(=O)C(C)C)n2)c(OC(C)C)cc1C1CCN(C(=S)SCC(=O)NC2CCC2)CC1 | > 10000 nM | 140 nM | 450 nM | 7030 nM | 
8 | Cc1cc(Nc2ncc(Cl)c(Nc3ccccc3S(=O)(=O)C(C)C)n2)c(OC(C)C)cc1C1CCN(C(=O)SCC(=S)N2CCSCC2)CC1 | > 10000 nM | 230 nM | 350 nM | 5280 nM | 
9 | Cc1cc(Nc2ncc(Cl)c(Nc3ccccc3S(=O)(=O)C(C)C)n2)c(OC(C)C)cc1C1CCN(C(=S)SCCN2CCN(C)CC2)CC1 | > 10000 nM | 170 nM | 270 nM | 2190 nM | > 100 nM
10 | CCN(CC)CCSC(=S)N1CCC(c2cc(OC(C)C)c(Nc3ncc(Cl)c(Nc4ccccc4S(=O)(=O)C(C)C)n3)cc2C)CC1 | > 10000 nM | 260 nM | 230 nM | 980 nM | 
11 | Cc1cc(Nc2ncc(Cl)c(Nc3ccccc3S(=O)(=O)C(C)C)n2)c(OC(C)C)cc1C1CCN(C(=O)SCC(=S)N2CC(C)N(C)C(C)C2)CC1 (stereo not given) | > 10000 nM | 100 nM | 210 nM | 3960 nM | > 100 nM
12 | Cc1cc(Nc2ncc(Cl)c(Nc3ccccc3S(=O)(=O)C(C)C)n2)c(OC(C)C)cc1C1CCN(C(=O)SCC(=S)N2CCN(C3CCCC3)CC2)CC1 | > 10000 nM | 1700 nM | 350 nM | 5810 nM | 
13 | Cc1cc(Nc2ncc(Cl)c(Nc3ccccc3S(=O)(=O)C(C)C)n2)c(OC(C)C)cc1C1CCN(C(=S)SCC(=O)N(C)C)CC1 | > 10000 nM | 250 nM | 1540 nM | 5930 nM | 
14 | Cc1cc(Nc2ncc(Cl)c(Nc3ccccc3S(=O)(=O)C(C)C)n2)c(OC(C)C)cc1C1CCN(C(=O)SCC(=S)N2CCCC2)CC1 | > 10000 nM | 860 nM | 1210 nM | 3170 nM | 
15 | Cc1cc(Nc2ncc(Cl)c(Nc3ccccc3S(=O)(=O)C(C)C)n2)c(OC(C)C)cc1C1CCN(C(=O)SCC(=S)N2CCOCC2)CC1 | > 10000 nM | 120 nM | 650 nM | 4950 nM | 
16 | Cc1cc(Nc2ncc(Cl)c(Nc3ccccc3S(=O)(=O)C(C)C)n2)c(OC(C)C)cc1C1CCN(C(=S)SCC(N)=O)CC1 | > 10000 nM | 180 nM | 270 nM | 8150 nM | 
17 | CCN1CCN(C(=S)CSC(=O)N2CCC(c3cc(OC(C)C)c(Nc4ncc(Cl)c(Nc5ccccc5S(=O)(=O)C(C)C)n4)cc3C)CC2)CC1 | > 10000 nM | 320 nM | 130 nM | 2060 nM | 

Row | Compound | IC50 (A549) | IC50 (KARPAS-299) | IC50 (NCI-H2228) | IC50 (HCT-116) | IC50 [1]
18 | Cc1cc(Nc2ncc(Cl)c(Nc3ccccc3S(=O)(=O)C(C)C)n2)c(OC(C)C)cc1C1CCN(C(=O)SCC(=S)N2CCN(CCO)CC2)CC1 | > 10000 nM | 80 nM | 120 nM | 1530 nM | 
19 | Cc1cc(Nc2ncc(Cl)c(Nc3ccccc3S(=O)(=O)C(C)C)n2)c(OC(C)C)cc1C1CCN(C(=O)SCC(=S)N2CCN(S(C)(=O)=O)CC2)CC1 | > 10000 nM | 340 nM | 160 nM | 3540 nM | 
20 | Cc1cc(Nc2ncc(Cl)c(Nc3ccccc3S(=O)(=O)C(C)C)n2)c(OC(C)C)cc1C1CCNCC1 [CERITINIB] |  |  | 30 nM | 1070 nM | 
21 | Cc1cc(Nc2ncc(Cl)c(Nc3ccccc3S(=O)(=O)C(C)C)n2)c(OC(C)C)cc1C1CCN(C(=O)SCC(=S)N(C)C)CC1 | > 10000 nM | 230 nM | 850 nM | 2730 nM | 
22 | Cc1cc(Nc2ncc(Cl)c(Nc3ccccc3S(=O)(=O)C(C)C)n2)c(OC(C)C)cc1C1CCN(C(=S)SCC(=O)NC(C)C)CC1 | > 10000 nM | 140 nM | 360 nM | > 10000 nM | 
23 | CCN(CC)CCCSC(=S)N1CCC(c2cc(OC(C)C)c(Nc3ncc(Cl)c(Nc4ccccc4S(=O)(=O)C(C)C)n3)cc2C)CC1 | > 10000 nM | 500 nM | 490 nM | > 10000 nM | > 100 nM
24 | Cc1cc(Nc2ncc(Cl)c(Nc3ccccc3S(=O)(=O)C(C)C)n2)c(OC(C)C)cc1C1CCN(C(=S)SCC(=O)N2CCC(C)CC2)CC1 | > 10000 nM | 310 nM | 2030 nM | 5460 nM | 
25 | Cc1cc(Nc2ncc(Cl)c(Nc3ccccc3S(=O)(=O)C(C)C)n2)c(OC(C)C)cc1C1CCN(C(=O)SCC(=S)N2CCNC(C)C2)CC1 (stereo not given) | > 10000 nM | 210 nM | 160 nM | 2840 nM | > 100 nM
26 | Cc1cc(Nc2ncc(Cl)c(Nc3ccccc3S(=O)(=O)C(C)C)n2)c(OC(C)C)cc1C1CCN(C(=O)SCC(=S)N2CCCCC2)CC1 | > 10000 nM | 150 nM | 380 nM | 3360 nM | 
27 | Cc1cc(Nc2ncc(Cl)c(Nc3ccccc3S(=O)(=O)C(C)C)n2)c(OC(C)C)cc1C1CCN(C(=S)SCCN(C)C)CC1 | > 10000 nM | 110 nM | 180 nM | 1070 nM | 
28 | Cc1cc(Nc2ncc(Cl)c(Nc3ccccc3S(=O)(=O)C(C)C)n2)c(OC(C)C)cc1C1CCN(C(=O)SCC(=S)N2CCC[C@H]2CO)CC1 | > 10000 nM | 110 nM | 220 nM | 4890 nM | 
29 | Cc1cc(Nc2ncc(Cl)c(Nc3ccccc3S(=O)(=O)C(C)C)n2)c(OC(C)C)cc1C1CCN(C(=O)SCC(=S)N2CCN(C)CC2)CC1 | > 10000 nM | 140 nM | 320 nM | 2700 nM | > 100 nM
30 | Cc1cc(Nc2ncc(Cl)c(Nc3ccccc3S(=O)(=O)C(C)C)n2)c(OC(C)C)cc1C1CCN(C(=S)SCC(=O)N2CCOCC2)CC1 | > 10000 nM | 100 nM | 1600 nM | > 10000 nM | 
31 | Cc1cc(Nc2ncc(Cl)c(Nc3ccccc3S(=O)(=O)C(C)C)n2)c(OC(C)C)cc1C1CCN(C(=S)SCCN2CCCC2)CC1 | 1720 nM | 220 nM | 280 nM | 4670 nM | 
32 | Cc1cc(Nc2ncc(Cl)c(Nc3ccccc3S(=O)(=O)C(C)C)n2)c(OC(C)C)cc1C1CCN(C(=S)SCC(=O)N2CCSCC2)CC1 | > 10000 nM | 80 nM | 630 nM | 3860 nM | 
33 | CCN(CC)C(=O)CSC(=S)N1CCC(c2cc(OC(C)C)c(Nc3ncc(Cl)c(Nc4ccccc4S(=O)(=O)C(C)C)n3)cc2C)CC1 | > 10000 nM | 270 nM | 860 nM | 4740 nM | 
34 | Cc1cc(Nc2ncc(Cl)c(Nc3ccccc3S(=O)(=O)C(C)C)n2)c(OC(C)C)cc1C1CCN(C(=S)SCC(=O)NC2CCCCC2)CC1 | > 10000 nM | 590 nM | 2660 nM | 7830 nM | 
